According to ChEMBL document CHEMBL1201861, “Genomics of Drug Sensitity in Cancer screening data, Wellcome Trust Sanger Institute”:
Counter-ions that a name gives are not always drawn.

Assays:
Test in all cases: cells
CW-2 = type: functional, cell-based, Homo sapiens; conditions: Homo sapiens, CW-2;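 also: growth inhibition of CW-2 cells, read out by a cell viability assay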
Description: SANGER: Inhibition of human CW-2 cell growth in a cell viability assay.

DEL = type: functional, cell-based, Homo sapiens; conditions: Homo sapiens, DEL;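 also: growth inhibition of the human DEL cell line, read out with a cell viability assay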
Description: SANGER: Inhibition of human DEL cell growth in a cell viability assay.

DMS-114 = type: functional, cell-based, Homo sapiens; conditions: Homo sapiens, DMS-114
DSH1 = type: functional, cell-based, Homo sapiens; conditions: Homo sapiens, DSH1;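 also: growth inhibition of human DSH1 cells, measured with a cell viability readout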
Description: SANGER: Inhibition of human DSH1 cell growth in a cell viability assay.

DU-4475 = type: functional, cell-based, Homo sapiens; conditions: Homo sapiens, DU-4475
Description: SANGER: Inhibition of human DU-4475 cell growth in a cell viability assay.

EW-1 = type: functional, cell-based, Homo sapiens; conditions: Homo sapiens, EW-1
Description: SANGER: Inhibition of human EW-1 cell growth in a cell viability assay.

EW-13 = type: functional, cell-based, Homo sapiens; conditions: Homo sapiens, EW-13;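 also: growth inhibition of EW-13 cells, read out with a cell viability assay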
Description: SANGER: Inhibition of human EW-13 cell growth in a cell viability assay.

GB-1 = type: functional, cell-based, Homo sapiens; conditions: Homo sapiens, GB-1;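 also: growth of GB-1 cells judged by a viability assay, IC50 marks the concentration inhibiting growth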
Description: SANGER: Inhibition of human GB-1 cell growth in a cell viability assay.

GCIY = type: functional, cell-based, Homo sapiens; conditions: Homo sapiens, GCIY;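 also: growth inhibition of the human GCIY cell line, read out by a cell viability assay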
Description: SANGER: Inhibition of human GCIY cell growth in a cell viability assay.

GI-1 = type: functional, cell-based, Homo sapiens; conditions: Homo sapiens, GI-1;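 also: growth inhibition of human GI-1 cells, measured with a cell viability readout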
Description: SANGER: Inhibition of human GI-1 cell growth in a cell viability assay.

GOTO = type: functional, cell-based, Homo sapiens; conditions: Homo sapiens, GOTO;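 also: growth inhibition of GOTO cells, read out by a cell viability assay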
Description: SANGER: Inhibition of human GOTO cell growth in a cell viability assay.

GR-ST = type: functional, cell-based, Homo sapiens; conditions: Homo sapiens, GR-ST
Description: SANGER: Inhibition of human GR-ST cell growth in a cell viability assay.

HCE-T = type: functional, cell-based, Homo sapiens; conditions: Homo sapiens, HCE-T;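 also: cell viability assay read-out, reporting inhibition of HCE-T cell growth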
Description: SANGER: Inhibition of human HCE-T cell growth in a cell viability assay.

IA-LM = type: functional, cell-based, Homo sapiens; conditions: Homo sapiens, IA-LM;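 also: cell viability assay measuring growth inhibition of human IA-LM cells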
Description: SANGER: Inhibition of human IA-LM cell growth in a cell viability assay.

KARPAS-45 = type: functional, cell-based, Homo sapiens; conditions: Homo sapiens, KARPAS-45;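 also: inhibition of cell line growth, read out through a viability assay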
Description: SANGER: Inhibition of human KARPAS-45 cell growth in a cell viability assay.

KG-1 = type: functional, cell-based, Homo sapiens; conditions: Homo sapiens, KG-1;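 also: growth inhibition of KG-1 cells, read out by a cell viability assay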
Description: SANGER: Inhibition of human KG-1 cell growth in a cell viability assay.

KINGS-1 = type: functional, cell-based, Homo sapiens; conditions: Homo sapiens, KINGS-1;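 also: cell viability assay measuring suppression of KINGS-1 cell growth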
Description: SANGER: Inhibition of human KINGS-1 cell growth in a cell viability assay.

KP-N-YS = type: functional, cell-based, Homo sapiens; conditions: Homo sapiens, KP-N-YS;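 also: cell viability assay measuring inhibition of cell line growth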
Description: SANGER: Inhibition of human KP-N-YS cell growth in a cell viability assay.

L-428 = type: functional, cell-based, Homo sapiens; conditions: Homo sapiens, L-428
Description: SANGER: Inhibition of human L-428 cell growth in a cell viability assay.

LAMA-84 = type: functional, cell-based, Homo sapiens; conditions: Homo sapiens, LAMA-84;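 also: growth inhibition of LAMA-84 cells, read out with a cell viability assay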
Description: SANGER: Inhibition of human LAMA-84 cell growth in a cell viability assay.

LOX IMVI = type: functional, cell-based, Homo sapiens; conditions: Homo sapiens, LOX IMVI
Description: SANGER: Inhibition of human LOXIMVI cell growth in a cell viability assay.

Lu-65 = type: functional, cell-based, Homo sapiens; conditions: Homo sapiens, Lu-65;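 also: growth inhibition of Lu-65 cancer cells, read out by a cell viability assay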
Description: SANGER: Inhibition of human LU-65 cell growth in a cell viability assay.

MLMA = type: functional, cell-based, Homo sapiens; conditions: Homo sapiens, MLMA;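 also: growth inhibition of MLMA cells (human), determined through a cell viability readout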
Description: SANGER: Inhibition of human MLMA cell growth in a cell viability assay.

MN-60 = type: functional, cell-based, Homo sapiens; conditions: Homo sapiens, MN-60;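 also: growth inhibition of the MN-60 cell line, determined with a cell viability assay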
Description: SANGER: Inhibition of human MN-60 cell growth in a cell viability assay.

MZ1-PC = type: functional, cell-based, Homo sapiens; conditions: Homo sapiens, MZ1-PC;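 also: cell viability assay measuring growth inhibition of human MZ1-PC cells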
Description: SANGER: Inhibition of human MZ1-PC cell growth in a cell viability assay.

NB13 = type: functional, cell-based, Homo sapiens; conditions: Homo sapiens, NB13;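 also: cell viability readout measuring growth inhibition of human NB13 cells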
Description: SANGER: Inhibition of human NB13 cell growth in a cell viability assay.

NCI-H1299 = type: functional, cell-based, Homo sapiens; conditions: Homo sapiens, NCI-H1299;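 also: growth inhibition of human NCI-H1299 cells, read out by a cell viability assay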
Description: SANGER: Inhibition of human NCI-H1299 cell growth in a cell viability assay.

NCI-H1650 = type: functional, cell-based, Homo sapiens; conditions: Homo sapiens, NCI-H1650;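 also: growth inhibition of human NCI-H1650 cells measured by a cell viability assay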
Description: SANGER: Inhibition of human NCI-H1650 cell growth in a cell viability assay.

NCI-H209 = type: functional, cell-based, Homo sapiens; conditions: Homo sapiens, NCI-H209;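 also: growth inhibition of human NCI-H209 cells, measured by a cell viability assay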
Description: SANGER: Inhibition of human NCI-H209 cell growth in a cell viability assay.

NCI-H510A = type: functional, cell-based, Homo sapiens; conditions: Homo sapiens, NCI-H510A;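 also: growth inhibition of NCI-H510A cells, read out with a cell viability assay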
Description: SANGER: Inhibition of human NCI-H510A cell growth in a cell viability assay.

NCI-H82 = type: functional, cell-based, Homo sapiens; conditions: Homo sapiens, NCI-H82;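 also: growth inhibition of NCI-H82 cells, measured with a cell viability readout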
Description: SANGER: Inhibition of human NCI-H82 cell growth in a cell viability assay.

NH-12 = type: functional, cell-based, Homo sapiens; conditions: Homo sapiens, NH-12;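 also: growth inhibition of NH-12 cells, read out with a cell viability assay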
Description: SANGER: Inhibition of human NH-12 cell growth in a cell viability assay.

OCI-AML2 = type: functional, cell-based, Homo sapiens; conditions: Homo sapiens, OCI-AML2;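 also: growth inhibition of OCI-AML2 cells, read out with a cell viability assay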
Description: SANGER: Inhibition of human OCI-AML2 cell growth in a cell viability assay.

OVCAR-4 = type: functional, cell-based, Homo sapiens; conditions: Homo sapiens, OVCAR-4;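 also: growth inhibition of human OVCAR-4 cells, measured with a cell viability assay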
Description: SANGER: Inhibition of human OVCAR-4 cell growth in a cell viability assay.

QIMR-WIL = type: functional, cell-based, Homo sapiens; conditions: Homo sapiens, QIMR-WIL;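 also: growth inhibition of QIMR-WIL cells, read out with a cell viability assay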
Description: SANGER: Inhibition of human QIMR-WIL cell growth in a cell viability assay.

Ramos-2G6-4C10 = type: functional, cell-based, Homo sapiens; conditions: Homo sapiens, Ramos-2G6-4C10;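 also: growth inhibition of the cell line, measured by a cell viability read-out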
Description: SANGER: Inhibition of human Ramos-2G6-4C10 cell growth in a cell viability assay.

SBC-1 = type: functional, cell-based, Homo sapiens; conditions: Homo sapiens, SBC-1;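 also: cell viability assay measuring growth inhibition of the SBC-1 cell line, IC50 being the concentration that halves growth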
Description: SANGER: Inhibition of human SBC-1 cell growth in a cell viability assay.

SF-539 = type: functional, cell-based, Homo sapiens; conditions: Homo sapiens, SF-539;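 also: Read-out is a cell viability assay, with IC50 reflecting inhibition of cell growth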
Description: SANGER: Inhibition of human SF539 cell growth in a cell viability assay.

SHP77 = type: functional, cell-based, Homo sapiens, SHP-77; conditions: Homo sapiens, SHP77;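 also: growth inhibition of human SHP-77 cells measured by a cell viability assay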
Description: SANGER: Inhibition of human SHP-77 cell growth in a cell viability assay.

SK-MEL-2 = type: functional, cell-based, Homo sapiens; conditions: Homo sapiens, SK-MEL-2;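 also: growth inhibition of human SK-MEL-2 cells measured with a cell viability assay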
Description: SANGER: Inhibition of human SK-MEL-2 cell growth in a cell viability assay.

SK-NEP-1 = type: functional, cell-based, Homo sapiens; conditions: Homo sapiens, SK-NEP-1;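 also: growth inhibition of human SK-NEP-1 cells, read out by a cell viability assay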
Description: SANGER: Inhibition of human SK-NEP-1 cell growth in a cell viability assay.

TE-1 = type: functional, cell-based, Homo sapiens; conditions: Homo sapiens, TE-1;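 also: growth inhibition of the human TE-1 cell line, read out with a cell viability assay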
Description: SANGER: Inhibition of human TE-1 cell growth in a cell viability assay.

A3-KAW = type: functional, cell-based, Homo sapiens; conditions: Homo sapiens, A3-KAW;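 also: growth inhibition of human A3-KAW cells, read out with a cell viability assay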
Description: SANGER: Inhibition of human A3-KAW cell growth in a cell viability assay.

A498 = type: functional, cell-based, Homo sapiens; conditions: Homo sapiens, A498;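 also: growth inhibition of human A498 cells, read out with a cell viability assay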
Description: SANGER: Inhibition of human A498 cell growth in a cell viability assay.

BB30-HNC = type: functional, cell-based, Homo sapiens; conditions: Homo sapiens, BB30-HNC;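 also: growth inhibition of the cultured cell line, read out by a cell viability assay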
Description: SANGER: Inhibition of human BB30-HNC cell growth in a cell viability assay.

TGBC1TKB = type: functional, cell-based, Homo sapiens; conditions: Homo sapiens, TGBC1TKB;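 also: growth inhibition of TGBC1TKB cells, read out by a cell viability assay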
Description: SANGER: Inhibition of human TGBC1TKB cell growth in a cell viability assay.

U-266 = type: functional, cell-based, Homo sapiens; conditions: Homo sapiens, U-266
Description: SANGER: Inhibition of human U-266 cell growth in a cell viability assay.

UACC-257 = type: functional, cell-based, Homo sapiens; conditions: Homo sapiens, UACC-257
Description: SANGER: Inhibition of human UACC-257 cell growth in a cell viability assay.

no-10 = type: functional, cell-based, Homo sapiens; conditions: Homo sapiens;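 also: growth inhibition of no-10 cells, read out with a cell viability assay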
Description: SANGER: Inhibition of human no-10 cell growth in a cell viability assay.

COC1=CC(c2cc3ccccc3[nH]2)=N/C1=C\c1[nH]c(C)cc1C [OBATOCLAX MESYLATE]
IC50 (CW-2): > 16000 nM
IC50 (DEL): 83.5 nM
IC50 (DMS-114): 1270 nM
IC50 (DSH1): 4470 nM
IC50 (DU-4475): 162 nM
IC50 (EW-1): < 62.5 nM
IC50 (EW-13): 44.1 nM
IC50 (GB-1): 164 nM
IC50 (GCIY): 310 nM
IC50 (GI-1): 275 nM
IC50 (GOTO): 4300 nM
IC50 (GR-ST): < 62.5 nM
IC50 (HCE-T): 125 nM
IC50 (IA-LM): 60.5 nM
IC50 (KARPAS-45): < 62.5 nM
IC50 (KG-1): 334 nM
IC50 (KINGS-1): 826 nM
IC50 (KP-N-YS): 789 nM
IC50 (L-428): 370 nM
IC50 (LAMA-84): 2570 nM
IC50 (LOX IMVI): 61.9 nM
IC50 (Lu-65): 1090 nM
IC50 (MLMA): 75.3 nM
IC50 (MN-60): 99 nM
IC50 (MZ1-PC): 108 nM
IC50 (NB13): 64.2 nM
IC50 (NCI-H1299): 61.3 nM
IC50 (NCI-H1650): 3780 nM
IC50 (NCI-H209): 3680 nM
IC50 (NCI-H510A): 772 nM
IC50 (NCI-H82): 3340 nM
IC50 (NH-12): 540 nM
IC50 (OCI-AML2): 57.8 nM
IC50 (OVCAR-4): 206 nM
IC50 (QIMR-WIL): 132 nM
IC50 (Ramos-2G6-4C10): 129 nM
IC50 (SBC-1): 3090 nM
IC50 (SF-539): 116 nM
IC50 (SHP77): 2010 nM
IC50 (SK-MEL-2): 157 nM
IC50 (SK-NEP-1): 1820 nM
IC50 (TE-1): 144 nM
IC50 (A3-KAW): 85.7 nM
IC50 (A498): > 16000 nM
IC50 (BB30-HNC): < 62.5 nM
IC50 (TGBC1TKB): 620 nM
IC50 (U-266): 311 nM
IC50 (UACC-257): 595 nM
IC50 (no-10): 1460 nM

Cc1cc([N+](=O)[O-])ccc1NS(=O)(=O)c1cc(Cl)ccc1Cl
IC50 (CW-2): > 32000 nM
IC50 (DEL): 6680 nM
IC50 (DMS-114): > 32000 nM
IC50 (DSH1): 949 nM
IC50 (DU-4475): 7830 nM
IC50 (EW-1): 15300 nM
IC50 (EW-13): 6040 nM
IC50 (GB-1): 2190 nM
IC50 (GCIY): 2940 nM
IC50 (GI-1): 1430 nM
IC50 (GOTO): > 32000 nM
IC50 (GR-ST): 10300 nM
IC50 (HCE-T): 9590 nM
IC50 (IA-LM): 3050 nM
IC50 (KARPAS-45): 4510 nM
IC50 (KG-1): 7000 nM
IC50 (KINGS-1): > 32000 nM
IC50 (KP-N-YS): 15900 nM
IC50 (L-428): > 32000 nM
IC50 (LAMA-84): 6090 nM
IC50 (LOX IMVI): 13900 nM
IC50 (Lu-65): 31800 nM
IC50 (MLMA): 8960 nM
IC50 (MN-60): 27000 nM
IC50 (MZ1-PC): 6310 nM
IC50 (NB13): 7320 nM
IC50 (NCI-H1299): 3190 nM
IC50 (NCI-H1650): 8470 nM
IC50 (NCI-H209): > 32000 nM
IC50 (NCI-H510A): 20200 nM
IC50 (NCI-H82): 18000 nM
IC50 (NH-12): 14600 nM
IC50 (OCI-AML2): 2520 nM
IC50 (OVCAR-4): 4610 nM
IC50 (QIMR-WIL): 6820 nM
IC50 (Ramos-2G6-4C10): 6000 nM
IC50 (SBC-1): > 32000 nM
IC50 (SF-539): 21000 nM
IC50 (SHP77): 22900 nM
IC50 (SK-MEL-2): 1720 nM
IC50 (SK-NEP-1): 19200 nM
IC50 (TE-1): 7650 nM
IC50 (A3-KAW): 8780 nM
IC50 (A498): > 32000 nM
IC50 (BB30-HNC): 2610 nM
IC50 (TGBC1TKB): 8370 nM
IC50 (U-266): 22900 nM
IC50 (UACC-257): 3840 nM
IC50 (no-10): > 32000 nM

N#Cc1c(O)c2c(-c3ccc(-c4ccccc4O)cc3)csc2[nH]c1=O
IC50 (CW-2): > 1020 nM
IC50 (DEL): 228 nM
IC50 (DMS-114): > 1020 nM
IC50 (DSH1): > 1020 nM
IC50 (DU-4475): > 1020 nM
IC50 (EW-1): > 1020 nM
IC50 (EW-13): > 1020 nM
IC50 (GB-1): > 1020 nM
IC50 (GCIY): > 1020 nM
IC50 (GI-1): > 1020 nM
IC50 (GOTO): 395 nM
IC50 (GR-ST): 218 nM
IC50 (HCE-T): > 1020 nM
IC50 (IA-LM): > 1020 nM
IC50 (KARPAS-45): 170 nM
IC50 (KG-1): 409 nM
IC50 (KINGS-1): > 1020 nM
IC50 (KP-N-YS): > 1020 nM
IC50 (L-428): 225 nM
IC50 (LAMA-84): 308 nM
IC50 (LOX IMVI): 88.3 nM
IC50 (Lu-65): 520 nM
IC50 (MLMA): 234 nM
IC50 (MN-60): 346 nM
IC50 (MZ1-PC): > 1020 nM
IC50 (NB13): > 1020 nM
IC50 (NCI-H1299): > 1020 nM
IC50 (NCI-H1650): > 1020 nM
IC50 (NCI-H209): > 1020 nM
IC50 (NCI-H510A): 692 nM
IC50 (NCI-H82): > 1020 nM
IC50 (NH-12): 36.9 nM
IC50 (OCI-AML2): 57.2 nM
IC50 (OVCAR-4): > 1020 nM
IC50 (QIMR-WIL): 36.4 nM
IC50 (Ramos-2G6-4C10): 172 nM
IC50 (SBC-1): > 1020 nM
IC50 (SF-539): > 1020 nM
IC50 (SHP77): 383 nM
IC50 (SK-MEL-2): > 1020 nM
IC50 (SK-NEP-1): 185 nM
IC50 (TE-1): > 1020 nM
IC50 (A3-KAW): 91.7 nM
IC50 (A498): > 1020 nM
IC50 (BB30-HNC): > 1020 nM
IC50 (TGBC1TKB): > 1020 nM
IC50 (U-266): 405 nM
IC50 (UACC-257): > 1020 nM
IC50 (no-10): > 1020 nM
